From PubChem BioAssay (NCI)
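A five-concentration, 48-hour dose response in 96-well plates underlies each endpoint, interpolated linearly between surrounding concentrations. The concentration for 50% growth inhibition is given as GI50. TGI marks complete inhibition of growth.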

What was measured:
Experiment in all cases: inhibition of tumour cell growth, NCI panel, 48 h
A549 NSCLC = system: A549 NSCLC
HCT-15 colon = system: HCT-15 colon
HL-60(TB) leukemia = system: HL-60(TB) leukemia
HT29 colon = system: HT29 colon
NCI-H226 lung = system: NCI-H226 lung
RXF 393 renal = system: RXF 393 renal
SF-295 CNS = system: SF-295 CNS
SNB-75 CNS = system: SNB-75 CNS
SW-620 colon = system: SW-620 colon
UACC-62 melanoma = system: UACC-62 melanoma

Compound	GI50 (A549 NSCLC)	TGI (A549 NSCLC)	GI50 (HCT-15 colon)	TGI (HCT-15 colon)	GI50 (HL-60(TB) leukemia)	TGI (HL-60(TB) leukemia)	GI50 (HT29 colon)	TGI (HT29 colon)	GI50 (NCI-H226 lung)	TGI (NCI-H226 lung)	GI50 (RXF 393 renal)	TGI (RXF 393 renal)	GI50 (SF-295 CNS)	TGI (SF-295 CNS)	GI50 (SNB-75 CNS)	TGI (SNB-75 CNS)	GI50 (SW-620 colon)	TGI (SW-620 colon)	GI50 (UACC-62 melanoma)	TGI (UACC-62 melanoma)
COc1ccc(/C=C2\CC(C)CC3C2=NN(C(C)=O)C3c2ccc(OC)cc2)cc1 (stereo not given)	25.1 µM	> 100 µM	16 µM	38.7 µM	13.7 µM	61 µM	9.08 µM	40.2 µM	16.5 µM	39.1 µM	27.2 µM	> 100 µM	18.2 µM	41.8 µM	17.7 µM	53.3 µM	21.8 µM	59 µM	17 µM	35.3 µM
CN1CCN(c2cc(C(=O)Nc3cc4cc(-c5cnn(C)c5)ccc4cn3)ccn2)CC1	0.0432 µM	11.4 µM	0.0666 µM	2.46 µM	0.119 µM	7.91 µM	0.182 µM	0.442 µM	0.205 µM	12 µM	0.258 µM	0.724 µM	0.306 µM	13.2 µM	0.137 µM	0.833 µM	0.0422 µM	11.7 µM	0.192 µM	0.646 µM
COc1ccc(-c2nc(C(=O)c3ccccc3)n(CC(=O)c3ccccc3)c2-c2ccc(OC)cc2)cc1	> 100 µM	> 100 µM	> 100 µM	> 100 µM	> 100 µM	> 100 µM	> 100 µM	> 100 µM	> 100 µM	> 100 µM	> 100 µM	> 100 µM	> 100 µM	> 100 µM	> 100 µM	> 100 µM	> 100 µM	> 100 µM	> 100 µM	> 100 µM
CC(=O)N1c2ccccc2NC2=C(C(=O)N(Cc3ccccc3)C2(C)C)C1c1ccco1 (stereo not given)	1.03 µM	> 25 µM	1.2 µM	> 25 µM	0.103 µM	0.651 µM	0.755 µM	> 25 µM	> 25 µM	> 25 µM	0.599 µM	1.87 µM	0.766 µM	> 6.83 µM	0.841 µM	> 5.78 µM	0.58 µM	> 25 µM	0.373 µM	> 25 µM
C[C@@H]1Cc2c([nH]c3ccccc23)[C@@H](c2c(F)cc(NC3CN(CCCF)C3)cc2F)N1CC(F)(F)CO	9.91 µM	28.7 µM	3.5 µM	12.7 µM	4.9 µM	22.5 µM	3.7 µM	15.3 µM	7.71 µM	25.8 µM	4.38 µM	17 µM	2.25 µM	5.21 µM	4.92 µM	20.5 µM	3.28 µM	13 µM	2.35 µM	5.77 µM
